Assay results: patent publication US20240025966A1, “CD47 BLOCKADE AND COMBINATION THERAPIES THEREOF FOR REDUCTION OF VASCULAR INFLAMMATION” (The Board of Trustees of the Leland Stanford Junior …, priority 2020, published 2024)

Key:
NFκB1 p50 = NFκB1 p50 nuclear translocation by immunofluorescence and Western blot; format: cell-based, mouse; settings: smooth muscle cells, 10 μM atorvastatin + 100 μM mevalonate
Method: Mouse smooth muscle cells were seeded in Millicell EZ Slides 1 (Sigma-Aldrich, Catalogue #PEZGS0416 or Catalogue #PEZGS0816). […] Following stimulation/treatment, cells were rinsed with PBS and fixed with 4% phosphate-buffered paraformaldehyde. For CD47 staining (BioXCell, MIAP410, 25 μg/ml), vector mouse-on-mouse fluorescein Immunodetection Kit (Thermo Scientific, Catalogue #NC9801950) was used according to the manufacturer's instructions. For NFκB1 p105/p50 staining, cells were blocked with 5% goat serum (Sigma-Aldrich, Catalogue #G9023) for 30 minutes, then incubated with NFκB1 p105/p50 (Cell Signaling Technology, Catalogue #13586S, D4P4D, 1:200) overnight at 4° C. […] Images were captured using a Leica DMi8 microscope (equipped with a Leica DMC4500 colour camera and a Leica K5 camera for fluorescence imaging).
Total protein was isolated from mouse smooth muscle cells using a subcellular protein fractionation kit (Thermo Scientific, Catalogue #78840) supplemented with Halt Protease and Phosphatase Inhibitor Cocktail (Thermo Scientific, Catalogue #78442). The protein concentration in each sample was measured using Pierce BCA Protein Assay Kit (Thermo Scientific, Catalogue #23225). […] Membranes were then scanned with an iBright 1500 Imaging System (Thermo Scientific) for quantitative analysis using Image J/FIJI software (Version: 2.0.0/1.52p, NIH).

RAW 264.7 macrophages = experiment: Apoptosis assay (Caspase-Glo 3/7); format: cell-based, mouse; settings: with or without 1 μM staurosporine, 4 hours
Method: The apoptosis assay was performed as previously described (Kojima et al., Nature 536, 86-90, 2016). To evaluate apoptosis, the luminometric Caspase-Glo 3/7 Assay System (Promega, Catalogue #G8091) was performed on cultured murine RAW 264.7 macrophages, according to the manufacturer's protocol. Cells were seeded in 96-well plates at the density of 10,000 cells per well, grown at 37° C. and serum-starved for 24 hours. […] For quantification, an iD3 luminometer (Molecular Devices) was used.

CD47 promoter = CD47 promoter luciferase reporter assay; format: cell-based, mouse; settings: smooth muscle cells, 50 ng/ml TNF-α + 10 μM atorvastatin, 24 hours
Method: The luciferase reporter assay was performed as previously described (Kojima et al., Nature 536, 86-90, 2016). CD47 LightSwitch Promoter Reporter GoClones (RenSP, S710450) and Cypridina TK Control constructs (pTK-Cluc, SN0322S) were obtained from SwitchGear Genomics. 45 ng of the RenSP reporter and 5 ng of the pTK-Cluc reporter construct were transfected into mouse smooth muscle cells using Lipofectamine 3000 Transfection 1 Reagent (Thermo Scientific, Catalogue #L3000-008) and Opti-MEM I Reduced Serum Medium (Thermo Scientific, Catalogue #31985062). […] The cell lysate and supernatant were harvested 24 hours after stimulation/treatment und dual luciferase activity was measured with the LightSwitch Luciferase Assay Kit (Active Motif, Catalogue #32031, NC0999256) and Pierce Cypridina Luciferase Glow Assay Kit (Thermo Scientific, P116170) using an iD3 luminometer (Molecular Devices). Relative luciferase activity (RenSP/Cypridina ratio) was quantified as the percentage change relative to the basal value obtained from control-transfected cells.

CD47 = experiment: Cd47 expression by quantitative PCR, flow cytometry and immunofluorescence; format: cell-based, mouse; settings: smooth muscle cells, 50 ng/ml TNF-α + 10 μM atorvastatin, 48 hours; compared to macrophages
Method: RNA was extracted from cell lysates using the miRNeasy Mini Kit (Qiagen, Catalogue #217004) according to the manufacturer's protocol or the TRIzol method (Invitrogen, Catalogue #15596026). Then, RNA was quantified with a NanoDrop One (Thermo Scientific). RNA was reverse transcribed using the High-Capacity RNA-to-cDNA Synthesis Kit (Applied 1 Biosystems, Catalogue #4387406). Quantitative PCR of the cDNA samples was performed on a ViiA7 Real-Time PCR system or a QuantStudio 5 (both Applied Biosystems). Gene expression levels were measured using TaqMan Universal Master Mix II (Applied Biosystems, Catalogue #4440047, Lot #00762728) and commercially available TaqMan primers (Applied Biosystems). Data were quantified with the 2^−ΔΔCt method and normalized to Gapdh as an internal control. […]
Cells were washed, harvested, and stained with an anti-CD47 antibody (BD Life Sciences, Catalogue #561890, FITC, MIAP301, 0.5 mg/ml) or an isotype control antibody (BD Life Sciences, Catalogue #553929, FITC, R35-95, 0.5 mg/ml) after Fc receptor blockade (BD Biosciences, Catalogue #553142, anti-mouse CD16/CD32). Expression was quantified using the LSRII (BD Life Sciences, Stanford Shared FACS Facility) and analysed by FlowJo10.7.1 (BD Life Sciences). […]

humans = experiment: Retrospective analysis of 18F-FDG-PET/CT scans of patients treated with magrolimab; format: in vivo, human; settings: mean±SD, n=9
Method: Study population and design. The 13 participants enrolled in the first-in-human clinical trials of magrolimab at Stanford University were identified for inclusion in this retrospective analysis. These patients had refractory or relapsed B-cell lymphoma and had become refractory to rituximab alone or in combination with chemotherapy prior to enrollment. The protocol was reviewed and approved by the institutional review board at Stanford University (IRB #55497). Participants were treated with magrolimab in combination with background rituximab therapy. […]
^18F-FDG-PET/CT scans and analysis. […] Images were anonymized and analyzed using MIM Vista version 6.9.2 (MIM Software Inc., Cleveland, OH). The analyses were performed as previously described, and vascular uptake was quantified in the carotid arteries to avoid confounding by signal present in the mediastinal lymph nodes. Briefly, the carotid artery bifurcations on both sides were identified and arterial FDG uptake was measured starting 2 cm below the carotid artery bifurcation and continuing superiorly to 2 cm into the internal carotid artery. […] The maximum target-to-background ratio (TBR) was calculated (ratio of the maximum SUV of the artery compared to background activity in the ipsilateral internal jugular vein). […] This was calculated as an average maximum TBR derived from four contiguous axial segments. […]

For CC(O)(CCOP(=O)(O)O)CC(=O)O (racemic) [DL-mevalonic acid 5-phosphate], the “effect of atorvastatin on NFκB1 p50 nuclear translocation with the addition of mevalonate” value (NFκB1 p50) was “eliminated”.

CC(C)c1c(C(=O)Nc2ccccc2)c(-c2ccccc2)c(-c2ccc(F)cc2)n1CC[C@@H](O)C[C@@H](O)CC(=O)O [atorvastatin] was tested, and the “rate of programmed cell death (apoptosis)” value (RAW 264.7 macrophages) was “not found”, the “tumor necrosis factor-α induced CD47 promoter activity” value (CD47 promoter) was “inhibit” and the “CD47 RNA level” value (CD47) was “larger reduction”. For the same molecule, the CD47 protein level (CD47) was “larger reduction”.

In the case of “magrolimab: humanized anti-CD47 antibody, the first macrophage checkpoint inhibitor”, the “18F-FDG uptake measured by maximum SUV” value (humans; most diseased segment of the index vessel (carotid) after magrolimab 20 to 45 mg/kg weekly with background rituximab, baseline 2.75±0.58, p=0.01) is reported as 2.09±0.53 and the “18F-FDG uptake measured by maximum TBR” value (humans; most diseased segment of the index vessel (carotid) after magrolimab with background rituximab, baseline 1.56±0.22, p=0.006) is reported as 1.28±0.11.
